Source: ChEMBL document CHEMBL1154393, “Neuroprotective and cholinergic properties of multifunctional glutamic acid derivatives for the treatment of Alzheimer's disease” (J Med Chem, 2009)
pIC50: −log10 of the molar value.

Experiments:
SH-SY5Y [1] = assay: Neuroprotective activity against rotenone/oligomycin A-treated human SH-SY5Y cells assessed as cytoprotection at 3 uM pretreated 24 hrs before rotenone/oligomycin A challenge; type: functional
SH-SY5Y [2] = assay: Neuroprotective activity against rotenone/oligomycin A-treated human SH-SY5Y cells assessed as cytoprotection at 0.3 uM pretreated 24 hrs before rotenone/oligomycin A challenge; type: functional
Acetylcholinesterase [3] = biological target: T1, Acetylcholinesterase (Homo sapiens, UniProt P22303)
T1 sequence (P22303 whole entry): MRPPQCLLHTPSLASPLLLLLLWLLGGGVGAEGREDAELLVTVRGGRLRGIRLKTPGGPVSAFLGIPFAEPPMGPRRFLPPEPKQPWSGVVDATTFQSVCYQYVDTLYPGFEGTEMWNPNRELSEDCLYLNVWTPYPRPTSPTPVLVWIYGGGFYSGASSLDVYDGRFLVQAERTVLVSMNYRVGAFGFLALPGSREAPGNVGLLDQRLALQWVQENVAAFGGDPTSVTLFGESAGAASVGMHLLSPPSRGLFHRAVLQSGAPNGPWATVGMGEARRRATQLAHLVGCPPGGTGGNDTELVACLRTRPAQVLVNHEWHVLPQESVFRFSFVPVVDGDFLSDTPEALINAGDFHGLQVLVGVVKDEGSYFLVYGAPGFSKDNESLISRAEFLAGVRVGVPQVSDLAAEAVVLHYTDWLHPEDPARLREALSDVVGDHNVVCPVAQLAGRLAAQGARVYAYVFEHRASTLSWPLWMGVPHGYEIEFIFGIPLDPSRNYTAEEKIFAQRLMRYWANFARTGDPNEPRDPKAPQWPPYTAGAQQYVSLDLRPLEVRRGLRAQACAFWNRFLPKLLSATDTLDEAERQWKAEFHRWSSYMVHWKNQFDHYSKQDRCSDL
Description: Inhibition of human AChE in erythrocyte

SH-SY5Y [4] = assay: Neuroprotective activity against human SH-SY5Y cells assessed as cytoprotection at 0.3 uM coincubated with rotenone/oligomycin A measured after 24 hrs; type: functional
SH-SY5Y [5] = assay: Neuroprotective activity against human SH-SY5Y cells assessed as protection reduction in H2O2-induced LDH release at 30 uM after 24 hrs; type: functional; design: scale not given: the % may be the effect or the level left
SH-SY5Y [6] = assay: Neuroprotective activity against H2O2-induced human SH-SY5Y cells assessed as cell viability at 30 uM after 24 hrs; type: functional; details: read-out: Activity
Acetylcholinesterase [7] = biological target: T2, Acetylcholinesterase (Bos taurus, UniProt P23795)
T2 sequence (P23795 whole entry): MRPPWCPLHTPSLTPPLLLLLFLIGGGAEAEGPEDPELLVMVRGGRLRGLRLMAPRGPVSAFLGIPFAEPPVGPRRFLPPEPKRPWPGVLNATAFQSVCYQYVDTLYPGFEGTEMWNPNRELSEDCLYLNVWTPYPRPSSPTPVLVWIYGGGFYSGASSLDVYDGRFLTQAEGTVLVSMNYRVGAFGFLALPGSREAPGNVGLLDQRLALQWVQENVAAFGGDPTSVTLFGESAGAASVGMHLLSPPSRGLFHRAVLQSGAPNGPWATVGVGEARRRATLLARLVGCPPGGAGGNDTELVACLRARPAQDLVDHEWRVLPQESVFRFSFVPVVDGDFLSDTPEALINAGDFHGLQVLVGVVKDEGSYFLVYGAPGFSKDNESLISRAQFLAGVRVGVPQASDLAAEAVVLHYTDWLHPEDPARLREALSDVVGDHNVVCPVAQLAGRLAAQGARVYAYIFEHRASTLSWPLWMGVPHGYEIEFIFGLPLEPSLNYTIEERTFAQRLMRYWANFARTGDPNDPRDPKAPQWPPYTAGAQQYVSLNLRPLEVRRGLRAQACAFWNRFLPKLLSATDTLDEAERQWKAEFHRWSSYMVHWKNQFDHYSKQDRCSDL
Description: Inhibition of AChE in bovine erythrocyte by Ellman method

SH-SY5Y [8] = assay: Neuroprotective activity against human SH-SY5Y cells assessed as protection reduction in H2O2-induced LDH release at 10 uM after 24 hrs; type: functional; design: scale not given: the % may be the effect or the level left
Cholinesterase [9] = biological target: Cholinesterase (Homo sapiens, UniProt P06276); assay: Inhibition of human BuChE in serum; type: cell-free
Sequence of Cholinesterase (Homo sapiens, UniProt P06276) (P06276 whole entry): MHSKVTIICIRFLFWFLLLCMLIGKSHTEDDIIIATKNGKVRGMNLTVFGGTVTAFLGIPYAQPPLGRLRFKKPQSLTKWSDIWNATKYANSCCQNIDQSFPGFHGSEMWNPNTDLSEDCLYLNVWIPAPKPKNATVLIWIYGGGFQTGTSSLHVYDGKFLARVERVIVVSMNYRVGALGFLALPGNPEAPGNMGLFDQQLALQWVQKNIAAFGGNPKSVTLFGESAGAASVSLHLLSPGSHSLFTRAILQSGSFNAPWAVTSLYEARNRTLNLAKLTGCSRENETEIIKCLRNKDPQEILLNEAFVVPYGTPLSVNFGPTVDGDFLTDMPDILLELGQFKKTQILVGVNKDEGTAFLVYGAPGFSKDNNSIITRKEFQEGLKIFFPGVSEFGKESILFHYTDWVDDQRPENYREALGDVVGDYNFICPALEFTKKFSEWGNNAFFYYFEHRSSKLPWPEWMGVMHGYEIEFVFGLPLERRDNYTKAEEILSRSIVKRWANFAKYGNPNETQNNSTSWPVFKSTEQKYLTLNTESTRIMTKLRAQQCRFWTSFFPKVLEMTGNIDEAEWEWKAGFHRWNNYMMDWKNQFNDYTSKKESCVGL

Acetylcholinesterase [10] = biological target: T1, Acetylcholinesterase; assay: Displacement of propidium iodide from AChE peripheral anionic site at 0.3 uM
in vitro = details: PAMPA
Description: Permeability across PAMPA membrane

SH-SY5Y [11] = assay: Neuroprotective activity against human SH-SY5Y cells assessed as cytoprotection at 1 uM coincubated with rotenone/oligomycin A measured after 24 hrs; type: functional
Acetylcholinesterase [12] = biological target: T1, Acetylcholinesterase; assay: Displacement of propidium iodide from AChE peripheral anionic site at 1 uM
SH-SY5Y [13] = assay: Neuroprotective activity against human SH-SY5Y cells assessed as cytoprotection at 3 uM coincubated with rotenone/oligomycin A measured after 24 hrs; type: functional
SH-SY5Y [14] = assay: Neuroprotective activity against human SH-SY5Y cells assessed as protection reduction in H2O2-induced LDH release at 3 uM after 24 hrs; type: functional; design: scale not given: the % may be the effect or the level left
SH-SY5Y [15] = assay: Neuroprotective activity against human SH-SY5Y cells assessed as protection reduction in H2O2-induced LDH release at 1 uM after 24 hrs; type: functional; design: scale not given: the % may be the effect or the level left
Cholinesterase [16] = biological target: Cholinesterase (Equus caballus, UniProt P81908)
Sequence of Cholinesterase (Equus caballus, UniProt P81908) (P81908 whole entry): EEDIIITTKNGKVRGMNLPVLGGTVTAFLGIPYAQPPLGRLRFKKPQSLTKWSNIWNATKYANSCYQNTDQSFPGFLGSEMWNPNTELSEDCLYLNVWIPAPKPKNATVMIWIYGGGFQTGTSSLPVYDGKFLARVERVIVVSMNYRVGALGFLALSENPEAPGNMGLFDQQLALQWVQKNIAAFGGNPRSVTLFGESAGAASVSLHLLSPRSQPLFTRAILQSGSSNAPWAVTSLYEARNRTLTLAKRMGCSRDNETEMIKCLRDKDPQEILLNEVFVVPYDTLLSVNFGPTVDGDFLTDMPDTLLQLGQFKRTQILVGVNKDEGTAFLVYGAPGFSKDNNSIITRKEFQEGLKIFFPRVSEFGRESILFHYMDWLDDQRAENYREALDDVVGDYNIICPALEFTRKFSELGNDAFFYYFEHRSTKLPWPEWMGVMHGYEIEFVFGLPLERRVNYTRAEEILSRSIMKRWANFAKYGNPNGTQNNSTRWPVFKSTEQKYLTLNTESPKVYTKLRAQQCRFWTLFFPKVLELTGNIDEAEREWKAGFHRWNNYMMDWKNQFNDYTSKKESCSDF
Description: Inhibition of BuChE in horse serum by Ellman method

Acetylcholinesterase [17] = biological target: T1, Acetylcholinesterase; assay: Displacement of propidium iodide from AChE peripheral anionic site at 3 uM
SH-SY5Y [18] = assay: Neuroprotective activity against rotenone/oligomycin A-treated human SH-SY5Y cells assessed as cytoprotection at 1 uM pretreated 24 hrs before rotenone/oligomycin A challenge; type: functional
SH-SY5Y [19] = assay: Neuroprotective activity against rotenone/oligomycin A-treated human SH-SY5Y cells assessed as cytoprotection at 0.1 uM pretreated 24 hrs before rotenone/oligomycin A challenge; type: functional
SH-SY5Y [20] = assay: Neuroprotective activity against human SH-SY5Y cells assessed as cytoprotection at 0.1 uM coincubated with rotenone/oligomycin A measured after 24 hrs; type: functional

SMILES | Activity (SH-SY5Y [2]) [%] | pIC50 (Acetylcholinesterase [3]) | Activity (SH-SY5Y [4]) [%] | Activity (SH-SY5Y [5]) [%] | viability at 30 µM (SH-SY5Y [6]) [%] | pIC50 (Acetylcholinesterase [7]) | Activity (SH-SY5Y [8]) [%] | pIC50 (Cholinesterase [9]) | Activity (Acetylcholinesterase [10]) [%] | Papp (in vitro) [×10⁻⁶ cm/s] | Activity (SH-SY5Y [11]) [%] | Activity (Acetylcholinesterase [12]) [%] | Activity (SH-SY5Y [14]) [%] | Activity (SH-SY5Y [15]) [%] | pIC50 (Cholinesterase [16]) | Activity (Acetylcholinesterase [17]) [%] | Activity (SH-SY5Y [18]) [%] | further results
CCCCCCOC(=O)[C@H](CCC(=O)NCCC1CCN(Cc2ccccc2)CC1)NC(=O)c1ccccc1 | 47.9 | 6.28 | 20.1 | 67 | 100 | 5.72 | 52.4 | 5.76 | 24.7 | 18.7 | 21 | 15.9 | 68.1 | 43.9 | 5.82 | 37.3 | 43.8 | Activity (SH-SY5Y [1]): 38.5%; Activity (SH-SY5Y [13]): 15.1%
CCCCCCOC(=O)[C@H](CCC(=O)NCCC1CCN(Cc2ccccc2)CC1)NC(=O)c1cc2cccnc2s1 |  | 6.36 |  | 48.8 | 100 | 6.48 | 27.9 | 6.08 | 37.4 | 18.8 |  | 35.4 | 30.7 | 0 | 6.02 | 27.2 |  | 
CCCCCCOC(=O)[C@H](CCC(=O)NCCC1CCN(Cc2ccccc2)CC1)NC(=O)c1cc2ccccc2s1 |  | 6.57 |  | 17.9 | 100 | 5.60 | 21.2 | 6.48 | 31.5 | 25.6 |  | 26.5 | 20.9 | 28.7 | 6.26 | 39.7 |  | 
CCCCCCOC(=O)[C@H](CCC(=O)NCCC1CCN(Cc2ccccc2)CC1)NC(=O)c1cc2ccsc2s1 | 46.1 | 6.52 | 20.8 | 20.3 | 100 | 5.46 | 46.4 | 6.46 | 42.2 | 28.5 | 30.8 | 33.3 | 41.6 | 54.5 | 6.15 | 23.3 | 45.4 | Activity (SH-SY5Y [19]): 34.8%; Activity (SH-SY5Y [20]): 22.3%
CCCCCCOC(=O)[C@H](CCC(=O)NCCC1CCN(Cc2ccccc2)CC1)NC(=O)Cc1cc2ccc(Cl)cc2s1 |  | 7.00 |  | 0 | 100 | 5.64 | 0 | 7.15 | 14.7 |  |  | 16 | 32.5 | 26.2 | 7.30 | 23.4 |  | 
C=CC[N+](C)(C)c1ccc(CCC(=O)CCc2ccc([N+](C)(C)CC=C)cc2)cc1 |  |  |  |  |  |  |  |  |  |  |  |  |  |  |  | 16 |  | 
Cc1c(C)c2c(c(C)c1O)CCC(C)(C(=O)O)O2 (centres undefined) [TROLOX] |  |  |  | 57.7 |  |  |  |  |  |  |  |  | 0 | 0 |  |  |  | Activity (SH-SY5Y [1]): 65.1%; Activity (SH-SY5Y [13]): 63.7%
CCCCCCOC(=O)[C@H](CCC(=O)NCCC1CCN(Cc2ccccc2)CC1)NC(=O)c1cccs1 | 27.1 | 6.30 | 0 | 31.8 | 100 | 5.46 | 73 | 5.74 | 7.5 | 20.9 | 7 | 10.3 | 64.5 | 55.1 | 6.00 | 15 | 22.3 | Activity (SH-SY5Y [19]): 48.9%; Activity (SH-SY5Y [20]): 0%
CCCCCCOC(=O)[C@H](CCC(=O)NCCC1CCN(Cc2ccccc2)CC1)NC(=O)c1cc(Br)cs1 | 19 | 6.74 | 19.7 | 66.7 | 100 | 5.92 | 66.7 | 6.07 | 11.3 |  | 0 | < 0.5 | 84.3 | 63.3 | 6.12 | < 0.5 | 27.8 | Activity (SH-SY5Y [1]): 21.4%; Activity (SH-SY5Y [13]): 19.6%
CCCCCCOC(=O)[C@H](CCC(=O)NCCC1CCN(Cc2ccccc2)CC1)NC(=O)OCc1ccccc1 |  | 6.60 |  | 5.3 | 100 | 5.85 | 39.1 | 6.14 | 20.8 |  |  | 25 | 17.4 | 4.1 | 6.12 | 29.3 |  | 
CCCCCCOC(=O)[C@H](CCC(=O)NCCC1CCN(Cc2ccccc2)CC1)NC(=O)OC(C)(C)C |  | 6.02 |  | 0 | 100 | 5.30 | 0 | 5.52 | 42.3 | 11.6 |  | 43.6 | 1.7 | 24.9 | 5.46 | 42 |  | 
